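96-well plates; 48 h exposure; 5 concentrations. Endpoints by linear interpolation between flanking doses. Not reached: highest tested concentration assigned. GI50 = concentration required for 50% inhibition of growth.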 Calls of active or inactive are those of the source. Cut-off read from the data, not from the text of the source: active = GI50 up to about 1.1 µM and inactive = higher.
Tests used:
Assay in all cases: growth of human tumour cells (NCI), 48 h
Hs-578T = tested on: Hs-578T
EKVX = tested on: EKVX
MDA-MB-435 = tested on: MDA-MB-435
TK-10 = tested on: TK-10
HT-29 = tested on: HT-29
NCI/ADR-RES = tested on: NCI/ADR-RES
SNB-75 = tested on: SNB-75
CCRF-CEM = tested on: CCRF-CEM
SK-OV-3 = tested on: SK-OV-3
Malme-3M = tested on: Malme-3M
OVCAR-8 = tested on: OVCAR-8
UACC-62 = tested on: UACC-62
SR = tested on: SR
HOP-62 = tested on: HOP-62
RXF 393 = tested on: RXF 393
MDA-N = tested on: MDA-N
UO-31 = tested on: UO-31
HCT-116 = tested on: HCT-116
SK-MEL-28 = tested on: SK-MEL-28
SK-MEL-5 = tested on: SK-MEL-5
BT-549 = tested on: BT-549
786-0 = tested on: 786-0
SF-295 = tested on: SF-295
NCI-H460 = tested on: NCI-H460
COLO 205 = tested on: COLO 205
SF-539 = tested on: SF-539
A549 = tested on: A549
PC-3 = tested on: PC-3
M14 = tested on: M14
HOP-92 = tested on: HOP-92
MOLT-4 = tested on: MOLT-4
SW-620 = tested on: SW-620
NCI-H226 = tested on: NCI-H226
RPMI-8226 = tested on: RPMI-8226
MDA-MB-231 = tested on: MDA-MB-231
OVCAR-3 = tested on: OVCAR-3
HCC 2998 = tested on: HCC 2998
OVCAR-5 = tested on: OVCAR-5
KM12 = tested on: KM12
IGROV-1 = tested on: IGROV-1
SNB-19 = tested on: SNB-19
SN12C = tested on: SN12C
CAKI-1 = tested on: CAKI-1
K562 = tested on: K562
OVCAR-4 = tested on: OVCAR-4
SF-268 = tested on: SF-268
ACHN = tested on: ACHN
HL-60 = tested on: HL-60
LOX IMVI = tested on: LOX IMVI
DU-145 = tested on: DU-145
SK-MEL-2 = tested on: SK-MEL-2
NCI-H23 = tested on: NCI-H23
HCT-15 = tested on: HCT-15
UACC-257 = tested on: UACC-257
U-251 = tested on: U-251
NCI-H522 = tested on: NCI-H522
MCF7 = tested on: MCF7
T47D = tested on: T47D
A498 = tested on: A498

SMILES: C=C[C@@]1(C)CC2(C=C(CO)C(O)O2)Oc2c1c(=O)oc1cccc(C)c21 (some centres not stated)
- GI50 (Hs-578T): 10.6 µM (inactive)
- GI50 (EKVX): 17.1 µM (inactive)
- GI50 (MDA-MB-435): 3.57 µM (inactive)
- GI50 (TK-10): 17.6 µM (inactive)
- GI50 (HT-29): 4.69 µM (inactive)
- GI50 (NCI/ADR-RES): 2.61 µM (inactive)
- GI50 (SNB-75): 14.8 µM (inactive)
- GI50 (CCRF-CEM): 1.58 µM (inactive)
- GI50 (SK-OV-3): 24.4 µM (inactive)
- GI50 (Malme-3M): 4.85 µM (inactive)
- GI50 (OVCAR-8): 5.28 µM (inactive)
- GI50 (UACC-62): 10.2 µM (inactive)
- GI50 (SR): 2.4 µM (inactive)
- GI50 (HOP-62): 17.5 µM (inactive)
- GI50 (RXF 393): 2.26 µM (inactive)
- GI50 (MDA-N): 4.03 µM (inactive)
- GI50 (UO-31): 5.31 µM (inactive)
- GI50 (HCT-116): 1.74 µM (inactive)
- GI50 (SK-MEL-28): 7.74 µM (inactive)
- GI50 (SK-MEL-5): 12.7 µM (inactive)
- GI50 (BT-549): 3.35 µM (inactive)
- GI50 (786-0): 1.98 µM (inactive)
- GI50 (SF-295): 27.7 µM (inactive)
- GI50 (NCI-H460): 19.8 µM (inactive)
- GI50 (COLO 205): 9.08 µM (inactive)
- GI50 (SF-539): 5.53 µM (inactive)
- GI50 (A549): 31 µM (inactive)
- GI50 (PC-3): 15.6 µM (inactive)
- GI50 (M14): 3.52 µM (inactive)
- GI50 (HOP-92): 20.2 µM (inactive)
- GI50 (MOLT-4): 2.1 µM (inactive)
- GI50 (SW-620): 1.55 µM (inactive)
- GI50 (NCI-H226): 17.9 µM (inactive)
- GI50 (RPMI-8226): 0.822 µM (active)
- GI50 (MDA-MB-231): 10.5 µM (inactive)
- GI50 (OVCAR-3): 3.16 µM (inactive)
- GI50 (HCC 2998): 20.9 µM (inactive)
- GI50 (OVCAR-5): 17.6 µM (inactive)
- GI50 (KM12): 18.3 µM (inactive)
- GI50 (IGROV-1): 13.8 µM (inactive)
- GI50 (SNB-19): 16.7 µM (inactive)
- GI50 (SN12C): 9.86 µM (inactive)
- GI50 (CAKI-1): 4.61 µM (inactive)
- GI50 (K562): 2.23 µM (inactive)
- GI50 (OVCAR-4): 3.78 µM (inactive)
- GI50 (SF-268): 3.25 µM (inactive)
- GI50 (ACHN): 7.78 µM (inactive)
- GI50 (HL-60): 1.77 µM (inactive)
- GI50 (LOX IMVI): 3.61 µM (inactive)
- GI50 (DU-145): 13.9 µM (inactive)
- GI50 (SK-MEL-2): 4.1 µM (inactive)
- GI50 (NCI-H23): 7.45 µM (inactive)
- GI50 (HCT-15): 2.39 µM
- GI50 (UACC-257): 14.7 µM (inactive)
- GI50 (U-251): 10.9 µM (inactive)
- GI50 (NCI-H522): 2.33 µM (inactive)
- GI50 (MCF7): 6.62 µM (inactive)
- GI50 (T47D): 10.7 µM (inactive)
- GI50 (A498): 24.2 µM (inactive)

SMILES: C[C@@H]1C[C@H](O)[C@]2(O)O[C@@H]3C[C@@]4(C=O)[C@@H](CC=C5[C@@H]4CC[C@]4(C)[C@@H](C6=CC(=O)OC6)CC[C@]54O)C[C@H]3O[C@@H]2O1
- GI50 (Hs-578T): < 0.01 µM (active)
- GI50 (EKVX): < 0.01 µM (active)
- GI50 (MDA-MB-435): 0.0332 µM (active)
- GI50 (TK-10): < 0.01 µM (active)
- GI50 (HT-29): < 0.0212 µM (active)
- GI50 (NCI/ADR-RES): < 0.0202 µM (active)
- GI50 (SNB-75): 0.112 µM (active)
- GI50 (CCRF-CEM): < 0.01 µM (active)
- GI50 (SK-OV-3): 0.0426 µM (active)
- GI50 (Malme-3M): < 0.01 µM (active)
- GI50 (OVCAR-8): < 0.0205 µM (active)
- GI50 (UACC-62): 0.0449 µM (active)
- GI50 (SR): < 0.015 µM (active)
- GI50 (HOP-62): < 0.0121 µM (active)
- GI50 (RXF 393): < 0.0196 µM (active)
- GI50 (MDA-N): 0.042 µM (active)
- GI50 (UO-31): < 0.0247 µM (active)
- GI50 (HCT-116): 0.0143 µM (active)
- GI50 (SK-MEL-28): 0.128 µM (active)
- GI50 (SK-MEL-5): < 0.0169 µM (active)
- GI50 (BT-549): < 0.015 µM (active)
- GI50 (786-0): 0.0124 µM (active)
- GI50 (SF-295): < 0.0191 µM (active)
- GI50 (NCI-H460): < 0.0129 µM (active)
- GI50 (COLO 205): 0.0984 µM (active)
- GI50 (SF-539): < 0.0166 µM (active)
- GI50 (A549): < 0.0109 µM (active)
- GI50 (PC-3): 0.02 µM (active)
- GI50 (M14): 0.0574 µM (active)
- GI50 (HOP-92): 0.0277 µM (active)
- GI50 (MOLT-4): < 0.01 µM (active)
- GI50 (SW-620): < 0.0227 µM (active)
- GI50 (NCI-H226): < 0.0191 µM (active)
- GI50 (RPMI-8226): < 0.018 µM (active)
- GI50 (MDA-MB-231): 0.144 µM (active)
- GI50 (OVCAR-3): 0.0131 µM (active)
- GI50 (HCC 2998): 0.0678 µM (active)
- GI50 (OVCAR-5): 0.0951 µM (active)
- GI50 (KM12): 0.0337 µM (active)
- GI50 (IGROV-1): < 0.0118 µM (active)
- GI50 (SNB-19): 0.218 µM (active)
- GI50 (SN12C): < 0.01 µM (active)
- GI50 (CAKI-1): < 0.0125 µM (active)
- GI50 (K562): < 0.0231 µM (active)
- GI50 (OVCAR-4): < 0.0106 µM (active)
- GI50 (SF-268): 0.0103 µM (active)
- GI50 (ACHN): < 0.01 µM (active)
- GI50 (HL-60): 0.0171 µM (active)
- GI50 (LOX IMVI): 0.0176 µM (active)
- GI50 (DU-145): < 0.0163 µM (active)
- GI50 (SK-MEL-2): 0.098 µM (active)
- GI50 (NCI-H23): 0.0118 µM (active)
- GI50 (HCT-15): 0.0175 µM
- GI50 (UACC-257): 0.0702 µM (active)
- GI50 (U-251): < 0.0214 µM (active)
- GI50 (NCI-H522): < 0.01 µM (active)
- GI50 (MCF7): < 0.0188 µM (active)
- GI50 (T47D): 0.0218 µM (active)
- GI50 (A498): < 0.01 µM (active)

SMILES: C#CC1(O)CCC2[C@@H]3CCc4cc(Oc5nc(F)nc(-c6c(C)c(C(=O)OCC)n7ccccc67)n5)ccc4C3CC[C@@]21C (some centres not stated)
- GI50 (Hs-578T): > 100 µM (inactive)
- GI50 (EKVX): > 100 µM (inactive)
- GI50 (MDA-MB-435): > 100 µM (inactive)
- GI50 (TK-10): > 100 µM (inactive)
- GI50 (HT-29): > 100 µM (inactive)
- GI50 (NCI/ADR-RES): > 100 µM (inactive)
- GI50 (SNB-75): > 100 µM (inactive)
- GI50 (CCRF-CEM): 61 µM (inactive)
- GI50 (SK-OV-3): > 100 µM (inactive)
- GI50 (Malme-3M): > 100 µM (inactive)
- GI50 (OVCAR-8): > 100 µM (inactive)
- GI50 (UACC-62): > 100 µM (inactive)
- GI50 (SR): > 100 µM (inactive)
- GI50 (HOP-62): > 100 µM (inactive)
- GI50 (RXF 393): > 100 µM (inactive)
- GI50 (MDA-N): > 100 µM (inactive)
- GI50 (UO-31): > 100 µM (inactive)
- GI50 (HCT-116): > 100 µM (inactive)
- GI50 (SK-MEL-28): > 100 µM (inactive)
- GI50 (SK-MEL-5): > 100 µM (inactive)
- GI50 (BT-549): > 100 µM (inactive)
- GI50 (786-0): > 100 µM (inactive)
- GI50 (SF-295): > 100 µM (inactive)
- GI50 (NCI-H460): > 100 µM (inactive)
- GI50 (COLO 205): > 100 µM (inactive)
- GI50 (SF-539): > 100 µM (inactive)
- GI50 (A549): > 100 µM (inactive)
- GI50 (PC-3): > 100 µM (inactive)
- GI50 (M14): > 100 µM (inactive)
- GI50 (HOP-92): > 100 µM (inactive)
- GI50 (MOLT-4): > 100 µM (inactive)
- GI50 (SW-620): > 100 µM (inactive)
- GI50 (NCI-H226): > 100 µM (inactive)
- GI50 (RPMI-8226): > 100 µM (inactive)
- GI50 (MDA-MB-231): > 100 µM (inactive)
- GI50 (OVCAR-3): > 100 µM (inactive)
- GI50 (HCC 2998): > 100 µM (inactive)
- GI50 (OVCAR-5): > 100 µM (inactive)
- GI50 (KM12): > 100 µM (inactive)
- GI50 (IGROV-1): > 100 µM (inactive)
- GI50 (SNB-19): > 100 µM (inactive)
- GI50 (SN12C): > 100 µM (inactive)
- GI50 (CAKI-1): > 100 µM (inactive)
- GI50 (K562): 29.6 µM (inactive)
- GI50 (OVCAR-4): > 100 µM (inactive)
- GI50 (SF-268): > 100 µM (inactive)
- GI50 (ACHN): > 100 µM (inactive)
- GI50 (HL-60): > 100 µM (inactive)
- GI50 (LOX IMVI): > 100 µM (inactive)
- GI50 (DU-145): > 100 µM (inactive)
- GI50 (SK-MEL-2): > 100 µM (inactive)
- GI50 (NCI-H23): > 100 µM (inactive)
- GI50 (HCT-15): > 100 µM
- GI50 (UACC-257): > 100 µM (inactive)
- GI50 (U-251): > 100 µM (inactive)
- GI50 (NCI-H522): > 100 µM (inactive)
- GI50 (MCF7): > 100 µM (inactive)
- GI50 (T47D): > 100 µM (inactive)
- GI50 (A498): > 100 µM (inactive)

— ChEMBL document CHEMBL1201862, “PubChem BioAssay data set” (2004)
